Test results from patent US10111428B2, “Nematocide containing lactonic ring and preparation method and application thereof” (priority 2015, dated 2018).
≈ marks a conversion by molar mass, not a printed value.

What was measured:
[1] = system: Edaphon; assay: Edaphon toxicity test (Test Guidelines on Environmental Safety Assessment for Chemical Pesticides); details: 15 d; 100 times of usual dose (simulative usual dose 40 ppm); cell adds 'low toxicity'
Protocol: (§1) According to the earthworm and edaphon toxicity test procedures as prescribed in the Test Guidelines on Environmental Safety Assessment for Chemical Pesticides, earthworm and edaphon toxicity tests are conducted on compounds 1 to 60 from Table 1. The simulative usual dose of pesticide in the edaphon test is 40 ppm.

[2] = system: Nematode J2; assay: Plant pathogenic nematode inhibition test by dipping: second-stage juveniles; format: in vivo
[3] = system: Nematode eggs; assay: Plant pathogenic nematode inhibition test by dipping: nematode egg hatch inhibition (NY/T 1154.5-2006); format: in vivo
Protocol: A plant pathogenic nematode inhibition test is conducted by dipping with the compounds in Table 1; and by referring to NY/T 1154.5-2006 (Part 5: Dipping Test for Insecticide Ovicidal Activity), the nematode egg hatch inhibition activity of the compounds is tested, as shown in Table 2: […]

[4] = system: Earthworm; assay: Earthworm toxicity test (Test Guidelines on Environmental Safety Assessment for Chemical Pesticides); format: in vivo; details: cell adds 'low toxicity'
Protocol: as §1

[5] = Test object: nematode J2 (second-stage juveniles), dipping
[6] = Test object: nematode eggs, dipping

Compound	Edaphon Toxicity (15 d) (Inhibition ratio when added amount is 100 times of usual dose) [1]	LC50 ([2]; in vivo) [µg/mL]	LC50 ([3]; in vivo) [µg/mL]	Earthworm Toxicity LC50 (14 d) [4]	LC50 [2, 5] [µg/mL]	LC50 [3, 6] [µg/mL]
O=C1CC(C(=O)OCCC(F)=C(F)F)C(c2ccc(F)c(Cl)c2)O1 (centres unmarked) [Compound 23]	<50%, low toxicity	11.24 (≈ 30.7 µM)	10.23 (≈ 27.9 µM)	>10, low toxicity mg/L	–	–
Nc1ccc(C2OC(=O)CC2C(=O)OCCC(F)=C(F)F)cc1 (centres unmarked) [Compound 60]	<50%, low toxicity	10.06 (≈ 30.6 µM)	8.40 (≈ 25.5 µM)	>10, low toxicity mg/L	–	–
O=C1CC(C(=O)OCCC(F)=C(F)F)C(c2cc(Cl)cc(Cl)c2)O1 (centres unmarked) [Compound 13]	<50%, low toxicity	16.25 (≈ 42.4 µM)	15.46 (≈ 40.3 µM)	>10, low toxicity mg/L	–	–
Cc1ccc(Oc2ccccc2C2OC(=O)CC2C(=O)OCCC(F)=C(F)F)cc1 (centres unmarked) [Compound 53]	<50%, low toxicity	12.35 (≈ 29.4 µM)	8.98 (≈ 21.4 µM)	>10, low toxicity mg/L	–	–
O=C1CC(C(=O)OCCC=C(F)F)C(c2cc(C(F)(F)F)cc(C(F)(F)F)c2)O1 (centres unmarked) [Compound 47]	<50%, low toxicity	12.24 (≈ 28.3 µM)	11.41 (≈ 26.4 µM)	>10, low toxicity mg/L	–	–
Cc1ccc(C2OC(=O)CC2C(=O)OCCC=C(F)F)cc1 (centres unmarked) [Compound 3]	<50%, low toxicity	–	–	>10, low toxicity mg/L	10.23 (≈ 33 µM)	10.01 (≈ 32.3 µM)
O=C1CC(C(=O)OCCC(F)=C(F)F)C(c2ccccc2Cl)O1 (centres unmarked) [Compound 7]	<50%, low toxicity	–	–	>10, low toxicity mg/L	13.25 (≈ 38 µM)	12.81 (≈ 36.7 µM)
O=C1CC(C(=O)OCCC(F)=C(F)F)C(c2cc(Br)cc(Br)c2)O1 (centres unmarked) [Compound 18]	<50%, low toxicity	12.47 (≈ 26.4 µM)	10.23 (≈ 21.7 µM)	>10, low toxicity mg/L	–	–
O=C1CC(C(=O)OCCC(F)=C(F)F)C(c2c(F)cccc2C(F)(F)F)O1 (centres unmarked) [Compound 31]	<50%, low toxicity	10.07 (≈ 25.2 µM)	9.60 (≈ 24 µM)	>10, low toxicity mg/L	–	–
O=C1CC(C(=O)OCCC(F)=C(F)F)C(c2ccccc2C(F)(F)F)O1 (centres unmarked) [Compound 46]	<50%, low toxicity	11.24 (≈ 29.4 µM)	9.98 (≈ 26.1 µM)	>10, low toxicity mg/L	–	–
CCOc1ccccc1C1OC(=O)CC1C(=O)OCCC(F)=C(F)F (centres unmarked) [Compound 43]	<50%, low toxicity	13.35 (≈ 37.3 µM)	11.98 (≈ 33.4 µM)	>10, low toxicity mg/L	–	–
COc1cccc(C2OC(=O)CC2C(=O)OCCC(F)=C(F)F)c1 (centres unmarked) [Compound 37]	<50%, low toxicity	13.67 (≈ 39.7 µM)	12.84 (≈ 37.3 µM)	>10, low toxicity mg/L	–	–
O=C1CC(C(=O)OCCC(F)=C(F)F)C(c2ccc([N+](=O)[O-])cc2)O1 (centres unmarked) [Compound 58]	<50%, low toxicity	12.18 (≈ 33.9 µM)	10.07 (≈ 28 µM)	>10, low toxicity mg/L	–	–
O=C1CC(C(=O)OCCC(F)=C(F)F)C(c2ccc(Oc3ccc(F)cc3)cc2)O1 (centres unmarked) [Compound 55]	<50%, low toxicity	15.36 (≈ 36.2 µM)	13.24 (≈ 31.2 µM)	>10, low toxicity mg/L	–	–
